Reference: US20250034216A1, “STEREOSELECTIVE COVALENT LIGANDS FOR ONCOGENIC AND IMMUNOLOGICAL PROTEINS” (The Scripps Research Institute, priority 2021, published 2025)

Assays:
GNPAT_C54 = target: T1, GNPAT_C54 (Homo sapiens, UniProt O15228); test: IA-DTB cysteine engagement; format: binding; settings: 22Rv1 cells, relative to DMSO; for % engagement GNPAT_C54: 20 μM probe, 1 h; for % engagement GNPAT_54: 5 μM probe, 1 h (FIG. 5B)
T1 construct: endogenous in cells; host or cells: 22Rv1
T1 sequence (O15228 1-680): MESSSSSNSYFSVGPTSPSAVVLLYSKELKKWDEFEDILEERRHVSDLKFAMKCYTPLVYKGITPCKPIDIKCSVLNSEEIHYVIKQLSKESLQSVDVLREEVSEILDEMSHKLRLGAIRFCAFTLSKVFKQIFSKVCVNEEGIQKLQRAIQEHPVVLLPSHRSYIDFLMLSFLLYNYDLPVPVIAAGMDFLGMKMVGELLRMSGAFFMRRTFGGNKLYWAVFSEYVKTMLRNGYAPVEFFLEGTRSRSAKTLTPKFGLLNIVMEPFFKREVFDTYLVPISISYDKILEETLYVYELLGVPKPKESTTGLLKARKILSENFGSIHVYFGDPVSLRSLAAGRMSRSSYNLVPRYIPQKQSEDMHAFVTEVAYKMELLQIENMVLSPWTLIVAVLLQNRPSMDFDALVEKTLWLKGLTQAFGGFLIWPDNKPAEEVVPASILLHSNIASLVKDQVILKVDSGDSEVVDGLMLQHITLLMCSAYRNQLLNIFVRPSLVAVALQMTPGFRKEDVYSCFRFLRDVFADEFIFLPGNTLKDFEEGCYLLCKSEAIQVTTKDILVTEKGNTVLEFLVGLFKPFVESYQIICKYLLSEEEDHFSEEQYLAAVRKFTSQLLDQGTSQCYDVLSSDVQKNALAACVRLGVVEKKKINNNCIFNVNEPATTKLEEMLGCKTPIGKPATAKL
In short: (§1)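 Probe-exposed cells were lysed, IA-DTB-labeled, trypsinized and streptavidin-enriched. Multiplexed TMT quantitation gave engagement ratios versus DMSO, with non-tryptic peptides excluded and intensities normalized to median summed signal.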

NUDT16L1_C88 = target: T2, NUDT16L1_C88 (Homo sapiens, UniProt Q9BRJ7); test: IA-DTB cysteine engagement; format: binding; settings: 22Rv1 cells, relative to DMSO; for % engagement NUDT16L1_C88: 20 μM probe, 1 h; for % engagement NUDT16L1_88: 5 μM probe, 1 h (FIG. 5B)
T2 construct: endogenous in cells; host or cells: 22Rv1
T2 sequence (Q9BRJ7 whole entry): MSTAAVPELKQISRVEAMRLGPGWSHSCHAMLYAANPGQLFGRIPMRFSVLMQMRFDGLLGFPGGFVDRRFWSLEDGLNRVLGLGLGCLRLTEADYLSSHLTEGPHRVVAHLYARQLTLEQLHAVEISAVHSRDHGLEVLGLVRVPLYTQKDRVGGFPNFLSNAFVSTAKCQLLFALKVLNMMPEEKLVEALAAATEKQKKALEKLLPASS
In short: as §1

PRRT3_C720 = target: T3, PRRT3_C720 (Homo sapiens, UniProt Q5FWE3); test: IA-DTB cysteine engagement; format: binding; settings: 22Rv1 cells, 20 μM probe, 1 h, relative to DMSO
T3 construct: endogenous in cells; host or cells: 22Rv1
T3 sequence (Q5FWE3 28-981): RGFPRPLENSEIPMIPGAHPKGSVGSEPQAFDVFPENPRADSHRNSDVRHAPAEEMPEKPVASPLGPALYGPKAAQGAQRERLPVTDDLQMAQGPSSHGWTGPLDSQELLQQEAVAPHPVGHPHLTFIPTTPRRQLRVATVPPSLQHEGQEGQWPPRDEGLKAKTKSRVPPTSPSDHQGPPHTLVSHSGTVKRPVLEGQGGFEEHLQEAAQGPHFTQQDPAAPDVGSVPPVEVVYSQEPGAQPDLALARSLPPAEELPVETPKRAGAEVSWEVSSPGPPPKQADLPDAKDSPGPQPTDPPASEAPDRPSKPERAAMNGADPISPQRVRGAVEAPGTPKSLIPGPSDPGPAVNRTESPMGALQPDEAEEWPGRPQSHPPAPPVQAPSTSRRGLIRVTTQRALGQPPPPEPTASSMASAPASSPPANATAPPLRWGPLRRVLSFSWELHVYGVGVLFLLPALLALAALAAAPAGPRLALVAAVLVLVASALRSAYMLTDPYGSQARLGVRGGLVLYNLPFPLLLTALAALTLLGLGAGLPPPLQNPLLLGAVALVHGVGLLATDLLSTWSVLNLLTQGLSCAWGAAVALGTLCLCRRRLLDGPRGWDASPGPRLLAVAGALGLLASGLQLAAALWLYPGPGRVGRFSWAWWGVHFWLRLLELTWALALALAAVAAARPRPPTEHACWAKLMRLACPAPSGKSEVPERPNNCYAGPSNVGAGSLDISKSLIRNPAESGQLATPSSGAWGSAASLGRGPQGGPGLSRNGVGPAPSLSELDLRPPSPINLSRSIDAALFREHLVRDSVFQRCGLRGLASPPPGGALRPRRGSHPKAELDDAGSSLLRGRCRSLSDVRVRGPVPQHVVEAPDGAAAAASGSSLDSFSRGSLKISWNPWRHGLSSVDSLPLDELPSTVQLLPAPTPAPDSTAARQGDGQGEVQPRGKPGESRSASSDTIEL
In short: as §1

22Rv1 cells = test: Proliferation assay (CellTiter Glo); format: cell-based, human; settings: 72 h
Procedure: Cells were seeded at 5000 cells per well (50 μL medium) in 96-well flat bottom white wall plates. After 24 h, 50 μL of medium containing DMSO or compound dilutions (2× final concentration from 1000× stocks) were added to the wells. At the time of compound addition, a reference plate to determine the cell population density at time 0 (TO) was assayed using CellTiter Glo reagent (50 μL added to each well). After 72 h in culture, the remaining plates were assayed using CellTiter Glo. After 30 min of shaking at room temperature, luminescence was analyzed using a CLARIOstar (BMG Labtech) plate reader. Raw values were normalized using GraphPad PRISM software version 9.0.0. Lines of best fit were generated using a four-parameter variable slope least squares regression.

| Compound | % engagement GNPAT_C54 (GNPAT_C54) [%] | % engagement NUDT16L1_C88 (NUDT16L1_C88) [%] | % engagement PRRT3_C720 (PRRT3_C720) [%] | further results |
| --- | --- | --- | --- | --- |
| C=CC(=O)N1C[C@@H](c2ccc(Br)cc2)[C@H]1C(=O)Nc1cccc2cccnc12 [MY-1A, (2S,3R)-1-acryloyl-3-(4-bromophenyl)-N-(quinolin-8-yl)azetidine-2-carboxamide] | 88.5 | 33.25 | 47 | – |
| C=CC(=O)N1C[C@H](c2ccc(Br)cc2)[C@@H]1C(=O)Nc1cccc2cccnc12 [MY-1B, (2R,3S)-1-acryloyl-3-(4-bromophenyl)-N-(quinolin-8-yl)azetidine-2-carboxamide] | 91.5 | 88.5 | 53 | % engagement GNPAT_54 (GNPAT_C54): 73.17%; % engagement NUDT16L1_88 (NUDT16L1_C88): 67.63% |
| C=CC(=O)N1C[C@H](c2ccc(Br)cc2)[C@H]1C(=O)Nc1cccc2cccnc12 [MY-3A, (2S,3S)-1-acryloyl-3-(4-bromophenyl)-N-(quinolin-8-yl)azetidine-2-carboxamide] | 54.25 | 14.5 | 45.5 | – |
| C=CC(=O)N1C[C@H](c2ccc(Br)cc2)[C@H]1C(=O)Nc1cccc2cccnc12 [MY-3B, (2S,3S)-1-acryloyl-3-(4-bromophenyl)-N-(quinolin-8-yl)azetidine-2-carboxamide] | 77.5 | 87.5 | 71 | – |
| CC#CC(=O)N1C[C@H](c2ccc(Br)cc2)[C@@H]1C(=O)Nc1cccc2cccnc12 [MY-45B, (2R,3S)-3-(4-bromophenyl)-1-(but-2-ynoyl)-N-(quinolin-8-yl)azetidine-2-carboxamide] | – | – | – | % engagement GNPAT_54 (GNPAT_C54): 51.83%; % engagement NUDT16L1_88 (NUDT16L1_C88): 9.38% |
| C=CC(=O)N1[C@H](c2ccc3c(c2)OCO3)c2[nH]c3ccccc3c2C[C@H]1C(=O)N1CCOCC1 [WX-02-23, 1-((1R,3S)-1-(benzo[d][1,3]dioxol-S-yl)-3-(morpholine-4-carbonyl)-1,3,4,9-tetrahydro-2H-pyrido [3,4-b]indol-2-yl)prop-2-en-1-one] | – | – | – | fold greater antiproliferative activity than MY-7A (22Rv1 cells): ~4 fold; IC50 (22Rv1 cells; read-out: antiproliferative activity IC50): 0.17 µM |
| C=CC(=O)N1[C@@H](c2ccc3c(c2)OCO3)c2[nH]c3ccccc3c2C[C@@H]1C(=O)N1CCOCC1 [WX-02-43, 1-((1S,3R)-1-(benzo[d][1,3]dioxol-5-yl)-3-(morpholine-4-carbonyl)-1,3,4,9-tetrahydro-2H-pyrido [3,4-b]indol-2-yl)prop-2-en-1-one] | – | – | – | anti-proliferative effect (22Rv1 cells): inactive enantiomer |
